Measurements: patent US9061984B2 (University of Louisville Research Foundation, Inc., priority 2008, dated 2015)
≈ marks a conversion by molar mass, not a printed value. Where two headings read alike, the source gives them in different places.

What was measured:
[1] = system: VERO cells; assay: Cytotoxicity on VERO cells (MTT), anti-T. cruzi study; settings: Chlorocebus sabaeus, Vero, read-out: IC50 VERO, Table 3
[2] = as above; settings: African green monkey, VERO cells, IC50 - VERO Cytotoxicity, Table 2
[3] = system: axenic amastigotes of L. amazonensis (strain MHOM/BR/76/LTB-012); assay: microbe, parasite or virus in culture; settings: Leishmania amazonensis, 72 h, read-out: IC50 L. amazonensis
[4] = system: Trypanosoma cruzi (Tulahuen C4); assay: In vitro anti-T. cruzi activity (β-galactosidase CPRG colorimetric assay in VERO monolayer); assay type: cell-based; settings: Trypanosoma cruzi, TULAHUEN, Vero; for inhibition at 10 µg/mL: 120 h, 10 μg/mL of each compound, 120 hours, read-out: T. cruzi Inhib. (%)
[5] = Table 2, read-out: IC50 - T. cruzi
[6] = Table 3, read-out: IC50 T. cruzi

Structure (SMILES)	IC50 [1] [µM]	IC50 [2] [µg/mL]	IC50 [3] [µM]	inhibition at 10 µg/mL [4] [%]	IC50 [4, 5] [µg/mL]	IC50 [4, 6] [µM]
C=CCOc1cc(OC)c(C(=O)/C=C/c2ccc(O)cc2)c(OCC=C)c1 [Compound I-09, (2E)-1-[2-Methoxy-4,6-bis(2-propenyloxy)phenyl]-3-(4-hydroxyphenyl)-2-propen-1-one]	76.4	28 (≈ 76.4 µM)	85.2	52.6	7.44	20.3
C=CCOc1cc(OC)c(C(=O)/C=C/c2ccc(C(F)(F)F)cc2)c(OCC=C)c1 [Compound I-12, (2E)-1-[2-Methoxy-4,6-bis(2-propenyloxy)phenyl]-3-[4-(trifluoromethyl)phenyl]-2-propen-1-one]	7.2	3 (≈ 7.17 µM)	128	64.2	6.53	15.6
C=CCOc1cc(OC)c(C(=O)/C=C/c2ccc(OC)cc2OC)c(OCC=C)c1 [Compound I-17, (2E)-3-(2,4-Dimethoxyphenyl)-1-[2-methoxy-4,6-bis(2-propenyloxy)phenyl]-2-propen-1-one]	92.6	38 (≈ 92.6 µM)	134	67.8	5.38	13.1
C=CCOc1cc(OC)c(C(=O)/C=C/c2ccc(C)cc2)c(OCC=C)c1 [Compound I-24, (2E)-1-[2-Methoxy-4,6-bis(2-propenyloxy)phenyl]-3-(4-methylphenyl)-2-propen-1-one]	211	77 (≈ 211 µM)	79.8	60.2	6.28	17.2
C=CCOc1cc(OC)c(C(=O)/C=C/c2cc(OCC=C)c(Br)c(OCC=C)c2)c(OCC=C)c1 [Compound I-25, (2E)-3-(3,5-Bis(2-propenyloxy)-4-bromophenyl)-1-[2-methoxy-4,6-bis(2-propenyloxy)phenyl]-2-propen-1-one]	96.3	52 (≈ 96 µM)	> 180	51.2	3.73	6.9
C=CCOc1cc(OC)c(C(=O)/C=C/c2ccncc2)c(OCC=C)c1 [Compound I-26, (2E)-1-[2-Methoxy-4,6-bis(2-propenyloxy)phenyl]-3-(4-pyridinyl)-2-propen-1-one]	2.8	1 (≈ 2.85 µM)	0.6	73.6	0.52	1.5
C=CCOc1cc(OC)c(C(=O)/C=C/c2ccco2)c(OCC=C)c1 [Compound I-28, (2E)-3-(2-furanyl)-1-[2-methoxy-4,6-bis(2-propenyloxy)phenyl]-2-propen-1-one]	191	65 (≈ 191 µM)	> 300	59.1	4.14	12.2
